Consider one sequence from patent US20180064965A1, “PEPTIDE FOR PROMOTING HAIR GROWTH” (H&H GROUP CO., LTD., priority 2016, published 2018).

The subject of one experiment is nude mice. The experiment can be described thus: Hair patch assay for nude mice. Particulars: subcutaneous injection of epidermal and dermal cells with 50 μg/ml peptide, 30 days. Format: in vivo. On the procedure:
Skin was peeled off from 1 day-old C57BL/6 mouse and its epidermis was separated from the dermis by 10 mg/ml Dispase digestion at 4° C. for 2 days. Epidermis and dermis were cut into small pieces and digested at 37° C. in 0.05% Trypsin-EDTA for 15 minutes and then 20 mg/ml collagenase for 60 minutes. Epidermal cells and dermal cells were collected through filtration with 70 μm strainers and low-speed centrifugation.
2×10^7 epidermal cells and 1×10^8 dermal cells were subcutaneously injected into nude mice with ddH2O or Mucinhair peptide (50 μg/ml). After 30 days, mice were sacrificed and hair patch was excised and photographed. The excised skins were paraffin-embedded and tissues were sectioned and stained with hemmtoxylin and eosin (H&E).

A further experiment deals with Hair follicles. As to the kind of experiment: Hair follicle culture. Format: cell-based. To be noted: rat whisker hair follicles, 50 μg/ml, 20th day after treatment, vs ddH2O. On the procedure: Hair follicles were isolated from 4 week-old rat whiskers and were maintained in Dulbecco's Modified Eagle Medium supplemented with 10% fetal bovine serum, 1% (v/v) antibiotic, and 250 ng/ml fungizone in 5% CO2 at 37° C. for 24 hours. Then, the hair follicles were treated with ddH2O or Mucinhair peptide (50 μg/ml). Medium was changed every 6 days and the hair shaft lengths were measured under a phase contrast microscope on the 20th day after the treatment.

Another experiment has as its system dermal papilla cells. The experiment can be described thus: Cell proliferation assay (MTT). To be noted: rat dermal papilla cells, 50 μg/ml, quotient of MTT value vs 0 hour. Format: cell-based. On the procedure:
Dermal papilla cells were isolated from rat whiskers and cells were cultured in Dulbecco's modified Eagle's medium (Thermo Scientific, Barrington, Ill., USA) with 10% fetal bovine serum (Gibco, Grand Island, N.Y., USA) and penicillin/streptomycin (100 IU/[…]) in a humidified atmosphere containing 5% CO2 at 37° C. Dermal papilla cells at the 3rd passage were used for all of the following experiments.
2×10^3 dermal papilla cells were seeded in 96-well plates and incubated with Mucinhair peptide (50 μg/ml) or ddH2O for the indicated period. 10 μL of 5 mg/mL 3-(4,5-dimethyl-2-thiazolyl)-2,5-diphenyl-2H-tetrazolium bromide solution (MTT; Sigma) was added to each well and incubated at 37° C. for 4 hours. After which, 100 μL of 10% SDS in 0.01N HCl was added to dissolve the MTT formazan crystals. The resultant optical density was measured spectrophotometrically at dual wavelengths, 550 and 630 nm. The MTT value was obtained by subtracting the OD630 value from the OD550 value.
The term “proliferation rate” used herein is defined as a quotient of the MTT value calculated from cells treated for an indicated period and that calculated from cells treated for 0 hour.

With NTSDPQKENRNTG [Mucinhair peptide], the “hair follicles in hypodermis (H&E)” value with nude mice is “has neogenic hair follicles”. The region with hairs entry in the experiment on nude mice (vs ddH2O) is listed as “larger than that injected with ddH2O”. Moreover, in the experiment on Hair follicles, the hair shaft lengths entry was “longer than those grown with ddH2O treatment”. Further, the values for the proliferation rate in the experiment with dermal papilla cells (treated for 48 hours) and in the experiment on dermal papilla cells (treated for 96 hours) were 2.26±0.23 and 3.31±0.21, respectively.
